# According to US9408863B2, “5′-substituted nucleoside analogs and methods of use thereof for the treatment of viral diseases” (Merck Sharp & Dohme Corp., priority 2011, dated 2016):
# System: HCV replicon (1b) in replicon cells
# Experiment: Cell-based HCV replicon assay (replicon RNA level by real time PCR, Taqman)
# Conditions: Hepatitis C virus, 72 h, read-out: 1b EC50
# Description: To measure cell-based anti-HCV activity of selected compounds of the present invention, replicon cells were seeded at 5000 cells/well in 96-well collagen I-coated Nunc plates in the presence of the test compound. Various concentrations of test compound, typically in 10 serial 2-fold dilutions, were added to the assay mixture, with the starting concentration ranging from 250 μM to 1 μM. The final concentration of dimethylsulfoxide was 0.5%, fetal bovine serum was 5%, in the assay media. Cells were harvested on day 3 by the addition of 1× cell lysis buffer (Ambion cat #8721). The replicon RNA level was measured using real time PCR (Taqman assay). The amplicon was located in 5B. The PCR primers were: 5B.2F, ATGGACAGGCGCCCTGA (SEQ ID. NO. 1); 5B.2R, […] (SEQ ID. NO. 2); the probe sequence was FAM-labeled CACGCCATGCGCTGCGG (SEQ ID. NO. 3). GAPDH RNA was used as endogenous control and was amplified in the same reaction as NS5B (multiplex PCR) using primers and VIC-labeled probe recommended by the manufacturer (PE Applied Biosystem). The real-time RT-PCR reactions were run on ABI PRISM 7900HT Sequence Detection System using the following program: 48° C. for 30 minutes, 95° C. for 10 minutes, 40 cycles of 95° C. for 15 sec, 60° C. for 1 minute. The ACT values (CT5B-CTGAPDH) were plotted against the concentration of test compound and fitted to the sigmoid dose-response model using XLfit4 (MDL). EC50 was defined as the concentration of inhibitor necessary to achieve ΔCT=1 over the projected baseline; EC90 the concentration necessary to achieve ΔCT=3.2 over the baseline. Alternatively, to quantitate the absolute amount of replicon RNA, a standard curve was established by including serially diluted T7 transcripts of replicon RNA in the Taqman assay. All Taqman reagents were from PE Applied Biosystems. Such an assay procedure was described in detail in e.g. Malcolm et al., Antimicrobial Agents and Chemotherapy 50: 1013-1020 (2006).
row,Compound,EC50 [µM]
1,CCCCOC(=O)[C@H](C)NP(=O)(Oc1cccc2ccccc12)O[C@H](C)[C@H]1O[C@@H](n2ccc(N)nc2=O)[C@](C)(O)[C@@H]1O (stereo partly shown) [Compound 2],10
2,CCCCOC(=O)[C@H](C)NP(=O)(Oc1cccc2ccccc12)O[C@H](C)[C@H]1O[C@@H](n2ccc(=O)[nH]c2=O)[C@](C)(O)[C@@H]1O (stereo partly shown) [Compound 4],> 100
3,CCCCOC(=O)[C@H](C)NP(=O)(Oc1cccc2ccccc12)O[C@@H](C)[C@H]1O[C@@H](n2ccc(N)nc2=O)[C@](C)(O)[C@@H]1O (stereo partly shown) [Compound 6],> 100
4,CCCCOC(=O)[C@H](C)NP(=O)(Oc1cccc2ccccc12)O[C@H](C)[C@H]1O[C@@H](n2cnc3c(=O)[nH]c(N)nc32)[C@](C)(O)[C@@H]1O (stereo partly shown) [Compound 10],> 100

# Same assay, conditions: Hepatitis C virus, 72 h; HCV 1b replicon cells, harvested on day 3; EC50 = concentration to achieve ΔCT=1 over projected baseline; read-out: 1b EC50
row,Compound,EC50 [µM]
1,C[C@@H](O)[C@H]1O[C@@H](n2ccc(N)nc2=O)[C@](C)(O)[C@@H]1O [Compound 1],> 100
2,C[C@@H](O)[C@H]1O[C@@H](n2ccc(=O)[nH]c2=O)[C@](C)(O)[C@@H]1O [Compound 3],> 100
3,C[C@H](O)[C@H]1O[C@@H](n2ccc(N)nc2=O)[C@](C)(O)[C@@H]1O [Compound 5],> 100
4,CC(O)[C@H]1O[C@@H](n2ccc(NC(=O)c3ccccc3)nc2=O)[C@](C)(F)[C@@H]1O (stereo partly shown) [Compound 7],> 100
5,CC(O)[C@H]1O[C@@H](n2ccc(N)nc2=O)[C@](C)(F)[C@@H]1O (stereo partly shown) [Compound 8],38
6,C[C@@H](O)[C@H]1O[C@@H](n2cnc3c(=O)[nH]c(N)nc32)[C@](C)(O)[C@@H]1O [Compound 9],> 100
7,C[C@H](O)[C@H]1O[C@@H](n2cnc3c(=O)[nH]c(N)nc32)[C@](C)(O)[C@@H]1O [Compound 11],> 100
8,CC(O)[C@H]1O[C@@H](n2cnc3c(OCc4ccccc4)nc(NC(=O)c4ccccc4)nc32)[C@](C)(F)[C@@H]1O (stereo partly shown) [Compound 12],14
9,CC(O)[C@H]1O[C@@H](n2cnc3c(=O)[nH]c(N)nc32)[C@](C)(F)[C@@H]1O (stereo partly shown) [Compound 13],3.5
